Where only a bound is given, the exact number is not on record here.

As usually defined, the melting point is the temperature of the solid-liquid transition.

`COc1ccc(CC(=O)Nc2c(-c3cc(Cl)ccc3O)c3cc(C(F)(F)F)ccc3[nH]c2=O)cc1` registered a melting point of 172 to 175 °C.

`Oc1ccc(Nc2cc(Cl)ncn2)cc1` registered a melting point of 241 to 244 °C.

Compound `COc1nc2cc(Cl)c(Cl)c(CSC)c2nc1OC` had a melting point of 143 to 145 °C.

The compound `CCCc1c(OCC(=N)OCC)ccc(C(C)=O)c1O` registered a melting point of 50 to 52 °C.

Turning to `CCCCOCCOc1ccc(-c2ccc3c(c2)C=C(C(=O)Nc2ccc(CN(C)C4CCOCC4)cc2)CCS3(=O)=O)cc1`, the melting point was in the range of 194 to 196 °C.

`COCCN1CCn2c1nc(C(=O)O)c(OCc1ccccc1)c2=O`: the melting point lay within 125 to 126 °C.

As to `N#Cc1nn(-c2c(Cl)cc(C(F)(F)F)cc2Cl)c(N)c1C1(C(F)(F)F)CC1`, the melting point lay within 178 to 179 °C.

Consider `Cc1ccc([N+](=O)[O-])c(C(=O)N[C@@H]2c3cc(OC(F)(F)F)ccc3OC(C)(C)[C@H]2O)c1`, for which the melting point was in the range of 185 to 187 °C.

Compound `CCCN1CCC(Cc2ccc3c(c2)c(Cc2ccc(C(=O)NS(=O)(=O)c4ccccc4C)cc2OC)cn3CCC)C1=O` (stereo unspecified) had a melting point of 98 to 115 °C.

Consider `CCO/C(=C\c1ccsc1)C(=O)O`, for which the melting point fell in the range of 88 to 89 °C.

The compound `CCCc1cn2ccccc2c1C(=O)c1ccc(OS(=O)(=O)c2ccc(C)cc2)cc1` gave a melting point of 95 to 97 °C.

Regarding `Cc1oc(-c2ccccc2)nc1COc1ccc(Cn2cc(CO)c(C(C)C)n2)cc1`, the melting point was in the range of 98 to 99 °C.

For `O=C(Cc1ccccc1C(=O)O)Nc1cccc(/C=C/c2nc(C3CCCCC3)cs2)c1`, the melting point was 210 to 211 °C.

In turn, `O=C(O)C(Cc1n[nH]c2ccccc12)NC(=O)C(CS)C(F)(F)F` (stereo unspecified) returned a melting point of 218 to 220 °C.

The compound `CCOC(=O)CCn1c(-c2ccc(F)cc2)cc2ccccc2c1=O` yielded a melting point of 125 to 126 °C.

`C=CC(=O)NC(C)(C)CS(=O)(=O)OC` displayed a melting point of 80.6 °C.

In the case of `O=C1OC2(CCC(N3CCN(c4ccc(F)cc4)CC3)CC2)c2cc(F)ccc21` (stereo unspecified), the melting point is greater than 250 °C.

`CCN(CC)c1ccc2c(c1)O/C(=C1/Oc3cc(N(CC)CC)ccc3C1=O)C2=O` returned a melting point of 292 °C.

`O=C(Nc1cccnn1)N1CCN(c2cc(-c3ccccc3F)ncn2)CC1` came in with a melting point of 207 to 208 °C.

The compound `COc1cc(COc2nn(C)cc2C(C)O)ccc1OCc1nc(-c2ccccc2)oc1C` (stereo unspecified) showed a melting point of 94 to 95 °C.

On to `C=CCOc1ccc2c(c1)c(C)c(CCC(=O)O)n2Cc1ccc(Cl)cc1`, for which the melting point came to 131 °C.

`CCCCCCCNC1=CC(=O)c2c(OC)ccc(OC)c2C1=O` had a melting point of 74 to 75 °C.

Compound `CC(c1ccc(OCCO)cc1)(c1ccc(OCCO)cc1)c1ccc(OCCO)cc1` gave a melting point of 78 to 81 °C.

`CCOC(=O)c1cn(-c2nc(SC(C)C)nc(C(F)(F)F)c2I)nc1C(F)(F)F` yielded a melting point of 107 to 108 °C.

`O=C(CCC(F)(F)F)Nc1ccccc1`: the melting point came out at 187 °C.

As to `Cc1[nH]c2ccc(CCOS(C)(=O)=O)cc2c1C(=O)OCc1ccccc1`, the melting point is 122 to 124 °C.

`CC(=O)c1c(CCN2CCN(C)CC2)nc(-c2ccccc2)nc1-c1cccc([N+](=O)[O-])c1` displayed a melting point of 88 to 91 °C.

In turn, `CCOC(=O)C1=C(C)NN=C(C(=O)OC)C1c1cccnc1` (stereo unspecified) registered a melting point of 179 °C.

Compound `CCCCC1c2sccc2CCN1CCNC(=O)c1ccc(NS(C)(=O)=O)cc1` (stereo unspecified) displayed a melting point of 98 to 105 °C.

`Cn1nccc1[C@H](O)c1ccccc1` came in with a melting point of 81 to 83 °C.

On to `Cc1nc(S(=O)(=O)N(C(=O)c2ccccc2)c2c(F)cccc2F)nn1-c1ncccn1`, for which the melting point was 218 to 221 °C.

`CSc1ccc(NS(=O)(=O)c2ccc(C)cc2)c([N+](=O)[O-])c1` had a melting point of 116 to 117 °C.

With `CC(C)(CO)NS(=O)(=O)c1cccc(NC(=O)c2cnn3c(C(F)(F)F)cc(-c4ccc(C(F)(F)F)c(OCC(F)(F)F)c4)nc23)c1`, the melting point was determined as 251 °C.

`COC(=O)CN(C)C(=S)c1cccc2c(SC(F)(F)F)c(OC)ccc12` registered a melting point of 121 to 123 °C.

In the case of `CC(=O)n1ccc(=O)c(O)c1C`, the melting point is 152 to 160 °C.

Regarding `Cc1cc(-c2nc[nH]n2)ccc1N`, the melting point fell in the range of 183 to 186 °C.

Compound `CCCCCCCCCCOC(=O)CS(=O)(=O)Nc1c(C(C)C)cccc1C(C)C` returned a melting point of 65 to 67 °C.

In turn, `Cc1cccc2c3c([nH]c12)CCNC3=O` showed a melting point of 300 to 302 °C.

As for `O=c1[nH]c(-c2ccc(CCN3CCN(c4cccc5cc(F)ccc45)CC3)cc2)cs1`, the melting point lay in the range of 228 to 270 °C.

Compound `COC(=O)C1=C(C)NC(c2cnc(Cl)s2)=NC1c1ccc(F)cc1` (stereo unspecified) came in with a melting point of 175 to 178 °C.

In turn, `CC1CC(=O)NN=C1c1ccc(NC(=NC#N)NCCc2ccccc2)cc1` (stereo unspecified) had a melting point of 209 to 210 °C.

In the case of `O=C(Nc1cn2cc(-n3ccnc3)ccc2n1)c1ccc(-c2ccoc2)cc1`, the melting point is 261 to 263 °C.

Compound `CC(C)(C)OC(=O)NCC1CCN(CC2(C(=O)O)CCOCC2)CC1` returned a melting point of 129 °C.

Consider `CC(C)(C)C(=O)c1ccc(C(N)=O)cc1`, for which the melting point lay in the range of 138 to 140 °C.

Turning to `CCSc1cc(N)c([N+](=O)[O-])cc1N`, the melting point came to 142 °C.

`CC(C)(C)OC(=O)N1CC=C(c2c[nH]c3ccc([N+](=O)[O-])cc23)CC1`: the melting point fell in the range of 210 to 212 °C.

Turning to `c1ccc(C2CCN(c3nsc4ccccc34)CC2)cc1`, the melting point fell in the range of 175 to 177 °C.

In the case of `CC1Nc2ccc(-c3ccc(F)c(C#N)c3)cc2C(C)(C)O1` (stereo unspecified), the melting point lay within 184 to 186 °C.

With `CCCCc1ncc(/C=C(/C(=O)O)C(Cc2ccccc2)c2cccs2)n1Cc1ccccc1Cl` (stereo unspecified), the melting point lay within 200 to 202 °C.

For `CCc1c(-c2ccc(O)cc2)c2c(CN(C)C)cc3cccc1n32`, the melting point lay in the range of 176 to 178 °C.

As to `Cc1ccc(C(=O)NC(NC(=S)Nc2ccc(F)cc2)C(F)(F)F)cc1` (stereo unspecified), the melting point lay within 208 to 210 °C.

In turn, `N#Cc1c[nH]cc1-c1ccccc1` displayed a melting point of 123 to 125 °C.

Consider `CCOc1ccc(-c2nc(-c3cc(CCO)c(O)c(C(=O)OC)c3)cs2)cc1OCC`, for which the melting point is 113 to 114 °C.

`O=c1oc2cccc(O)c2c(O)c1-c1ccccc1` yielded a melting point of 256 to 265 °C.

Take `Cc1n[nH]c(C)c1-c1cncc(OC2SCC(O)C(O)C2O)c1` (stereo unspecified): the melting point is 227 °C.

`O=C1C(c2ccccc2)=C(c2ccccc2)C(=O)N1CCc1ccccc1` showed a melting point of 164 to 165 °C.

For the compound `Cc1cc(Nc2ccnc(Nc3ccc(S(=O)(=O)N(Cc4ccco4)C4CCN(C)CC4)cc3)n2)ccc1F`, the melting point worked out at 184 °C.

The compound `CCC(=O)c1cc(C2(c3cccc(O)c3)N=C(N)N(C)C2=O)cn1CC` (stereo unspecified) gave a melting point of 101 °C.

The compound `CCOC(=O)c1cccc(NC(=O)C=Cc2cc(C(C)C)c(C(C)C)o2)c1` displayed a melting point of 160 to 161 °C.

`CCCc1ccc(C=NN=Cc2ccc(F)cc2)cc1` returned a melting point of 70.5 °C.

As for `CNC(=O)[C@@H]1C[C@@H](OC(C)(C)C)CN1S(=O)(=O)c1ccc(Cl)c(CBr)c1Cl`, the melting point came to 73 °C.

In turn, `CCCC[C@H](C)CC(=O)N[C@H](CCC(=O)N[C@@H](C)C(=O)N[C@H](C)C(=O)O)C(=O)O` had a melting point of 165 to 168 °C.

Consider `COC(=O)[C@H]1CO[C@@H](C(C)(C)C)N1C(=O)Cl`, for which the melting point came to 78 °C.

With `CCCN1CCN(c2cc3ccccc3c(=O)[nH]2)CC1`, the melting point was 208 to 209 °C.

With `CCCCCCCC(=O)N(C)Cc1cccc(-c2ccc(Nc3ccccc3C(=O)O)cc2)c1`, the melting point was found to be 45 °C.

For the compound `Cn1nc(-c2c(F)cccc2Cl)nc1-c1cc(-c2cccc(C(F)(F)F)c2)sc1Cl`, the melting point lay in the range of 53 to 54 °C.

Compound `CCCCCCCCCCCc1nc2c(O)c(Cl)cc(Cl)c2cc1CCCCCCCCCC` showed a melting point of 46 to 47 °C.

Regarding `CSc1ccc(-c2cc(Br)nn2-c2ccc(F)cc2)cc1`, the melting point is 98 to 99 °C.

The compound `NN=C(c1ccccc1)c1cc(Cl)ccc1N` returned a melting point of 133 to 134 °C.

Regarding `CCCCCCCCCCCCCCCCCNC(=O)OCCOCCOC(=O)N(Cc1ccccn1)C(=O)OCC`, the melting point is 57 to 59 °C.

In turn, `O=C(O)CCCCCCCn1c(-c2ccccc2)nc(-c2ccccc2)c1-c1ccccc1` returned a melting point of 162 °C.

`O=C(Cc1ccccc1)NCc1cccc2c1C(=O)N(C1CCC(=O)NC1=O)C2=O` (stereo unspecified) yielded a melting point of 128 to 130 °C.

In turn, `CC(C)(C)c1cc(C=C2SCN(CCO)C2=O)cc(C(C)(C)C)c1O` registered a melting point of 131 to 135 °C.

Consider `NS(=O)(=O)c1ccc(-c2noc(-c3cnn4ccc(-c5ccc(C(F)(F)F)cc5)nc34)n2)s1`, for which the melting point turned out to be 251 °C.

Consider `CC1(C)Cc2cccc(OC(=O)Cl)c2O1`, for which the melting point lay in the range of 85 to 87.5 °C.

In the case of `CCCCOc1nc(N)c2[nH]c(=O)n(CCCCN(CCN3CCOCC3)Cc3cccc(CC(=O)OC)c3)c2n1`, the melting point was 189 to 190 °C.

In the case of `Cc1c(C)c2c(c(C)c1O)CCC(C)(C(=O)N1CCC(Oc3ccc([N+](=O)[O-])cc3)C1)O2` (stereo unspecified), the melting point lay within 176 to 178 °C.

As for `OCC1OC(n2cnc3c(-c4ccccc4)ncnc32)C(O)C1O` (stereo unspecified), the melting point fell in the range of 224 to 225 °C.

The compound `N=C(N)c1ccc(O)c(C(=O)c2ccccc2)c1` registered a melting point of 186 to 189 °C.

Regarding `CCOC(=O)c1cnc2c(NC(=O)c3c(Cl)cccc3Cl)cccc2c1SCC(=O)O`, the melting point fell in the range of 174 to 175 °C.

`COc1ccc(C(=CC(=O)O)c2ccc(-c3ccccc3)cc2)cc1OC` came in with a melting point of 178 to 184 °C.

`CCCCCCCCCCCCSc1cc(SCCCCCCCCCCCC)c([N+](=O)[O-])c(C(=O)O)c1` had a melting point of 74 to 77 °C.

The compound `Cc1ccc(S(=O)(=O)OCC2Cc3cc(C(F)(F)F)cc(Br)c3O2)cc1` (stereo unspecified) yielded a melting point of 95 to 97 °C.

`CCOc1cc2cc(C(=O)OC)c(C(=O)OC)c(-c3ccnc(Br)c3)c2cc1OC` showed a melting point of 203 to 204 °C.

Compound `CCCNC(=O)CCCc1ccc2c(c1)c(Cc1ccc(C(=O)OC)cc1OC)cn2CCC` returned a melting point of 100 °C.

`COc1ccc(Oc2ccc(C(=O)C(=O)c3ccc(Oc4ccc(OC)cc4)cc3)cc2)cc1` showed a melting point of 121 to 122 °C.
